15 compounds from patent publication US10758524B2, “Compositions and methods for selectively depleting senescent cells” (BioVentures, LLC, priority 2014, dated 2020) can be followed below.

Holding throughout (format): cell-based
One assay deals with Normal WI38 cells. The assay is described as follows: Cell viability of normal WI38 cells at 72 h (LD50). The settings on record: for LD50 (normal): normal WI38 cells, Table 1; for CC50: Homo sapiens, WI-38, 72 h, read-out: LD50 non-senescent cells (NSC). How it is done: (§1) Normal WI38 cells (FIG. 1A), IR-induced senescent cells (FIG. 1B) and replicative senescent cells (FIG. 1C) were incubated with increasing concentrations of PL. At 72 hours post-treatment cell viability was measured. […] IR-induced senescent WI38 cells were treated with 10 μM PL and viable cells were measured at 0, 1, 2, 3, 6, 12, 16, 24, 48 and 72 hours after treatment (FIG. 1D) or the cells were incubated with 10 μM PL for 1, 3, 6, 12, 24, 48 or 72 hours and cell viability was measured at 72 h (FIG. 1E).
(§2) At 72 hours post-treatment cell viability was measured.
(§3) Normal WI38 cells and IR-induced senescent cells were incubated with increasing concentrations of compounds of Formula I and Formula II. At 72 hours post-treatment cell viability was measured and LD50 was calculated.

Assay [1] has as its system IR-induced senescent WI38 cells. The assay is described as follows: Cell viability of IR-induced senescent WI38 cells at 72 h (LD50). The settings on record: for LD50 (IR-senescent): IR-induced senescent WI38 cells; for LD50 (IR-senescent) / Ratio (normal/senescent): Table 1; for Ratio (normal/senescent) / Ratio (NSC/SC): ratio of LD50 values; for IC50: Homo sapiens, WI-38, 72 h, read-out: LD50 IR-senescent cells (SC); for Ratio (NSC/SC): Table 2. How it is done:
as §1, §2, §3

Assay [2] relates to replicative senescent WI38 cells. The assay is described as follows: Cell viability of replicative senescent WI38 cells at 72 h (LD50). How it is done:
as §1

Assay [3] relates to IR-induced senescent WI38 cells. The assay is described as follows: Reactive oxygen species (ROS) measurement after PL treatment. The settings on record: 10 μM PL, at 24 hours. How it is done: PL selectively increases ROS in senescent WI38 in a time-dependent manner. Normal (FIG. 2A) and IR-induced senescent WI38 cells (FIG. 2B) were incubated with vehicle (Veh), […] H2O2 for 30 min as a positive control, or 10 μM PL. Reactive oxygen species (ROS) was measured at various times (1, 3, 6, 12, 24 hours) after PL treatment and expressed as percent of control. Data are presented as mean±SE of three independent assays.

As to `CC(=O)OC[C@H]1O[C@@H]([S-])[C@H](OC(C)=O)[C@@H](OC(C)=O)[C@@H]1OC(C)=O.CCP(CC)CC.[Au+]` [Auranofin, reference compound], the “LD50 (normal)” value in the assay on Normal WI38 cells stood at 5.13 µM. Also, in assay [1], the “LD50 (IR-senescent)” value is 5.34 µM and the “Ratio (normal/senescent)” value turned out to be 1.0.

Consider `CCCCS(=N)(=O)CCC(N)C(=O)O` (stereo not drawn) [Buthionine sulfoximine, reference compound], for which the “LD50 (normal)” value in the assay on Normal WI38 cells turned out to be 2340.19 µM. In addition, in assay [1], the “LD50 (IR-senescent)” value is 2391.51 µM and the “Ratio (normal/senescent)” value is recorded as 1.0.

Regarding `CCCCCCCCCC[P+](c1ccccc1)(c1ccccc1)c1ccccc1` [Decyl-triphenylphosphonium, reference compound], in the assay on Normal WI38 cells, the “LD50 (normal)” value was determined as 1.41 µM. In addition, in assay [1], the “LD50 (IR-senescent)” value was 0.98 µM and the “Ratio (normal/senescent)” value was 1.4.

Turning to `CCCOc1c(OC)cc(/C=C/C(=O)N2CCC=CC2=O)cc1OC` [GZ-11719-by], in the assay on Normal WI38 cells, the CC50 turned out to be 84.7 µM. Further, in assay [1], the IC50 worked out at 47.1 µM and the “Ratio (NSC/SC)” value is given as 1.80.

With `COc1cc(/C=C/C(=O)N2CCC=CC2=O)cc(OC)c1OCCN(C)CCOc1c(OC)cc(/C=C/C(=O)N2CCC=CC2=O)cc1OC` [GZ-11719], in the assay on Normal WI38 cells, the CC50 came to 1.62 µM. In addition, in assay [1], the IC50 is 0.9 µM and the “Ratio (NSC/SC)” value stood at 1.80.

Turning to `COc1cc(/C=C(\Br)C(=O)N2CCC=CC2=O)c(Br)c(OC)c1OC` [GZ-11734], the CC50 in the assay with Normal WI38 cells turned out to be 7.16 µM. Besides, in assay [1], the IC50 came to 1.39 µM and the “Ratio (NSC/SC)” value worked out at 5.14.

`CC(=O)N[C@@H](CS)C(=O)O` [NAC, N-Acetyl-Cysteine, reference compound]: the “effect on PL induced cell death” value in assay [1] (pre-treatment 2 hours (NAC 1 mM; Q-VD-OPh 20 μM), then 10 μM PL 72 h) is reported as “selectively inhibited PL induced cell death”.

Turning to `COc1cc(/C=C/C(=O)N2CCC=CC2=O)cc(OC)c1OC` [PL, 5,6-dihydro-1-[(2E)-1-oxo-3-(3,4,5-trimethoxyphenyl)-2-propenyl]-2(1H)-pyridinone, reference compound], the “effect on cell viability” value in the assay with Normal WI38 cells (PL up to 10 μM, 72 hours) was “no significant effect”. Besides, the “LD50 (normal)” value in the assay on Normal WI38 cells turned out to be 24.25 µM. Further, the “viable cells over time” value in assay [1] (10 μM PL, from 6 hours on, both treatment scenarios) is given as “significant reduction in viable cells”. In addition, the “LD50 (IR-senescent)” value in assay [1] came out at 7.05 µM. For the same compound, the “effect on number of viable cells” value in assay [1] (PL as low as 5 μM, 72 hours) is on record as “significantly reduced the number of viable cells”; in assay [2] (PL as low as 5 μM, 72 hours) it was “significantly reduced the number of viable cells”. In addition, the “Ratio (normal/senescent)” value in assay [1] is reported as 3.44-3.82. Further, the “LD50 (Replicative)” value in assay [2] (replicative senescent WI38 cells, Table 1) came to 6.35 µM. Moreover, in assay [3], the ROS production entry is “significantly increased ROS production”.

`COc1cc(/C=C/C(=O)N2CCCCCC2=O)cc(OC)c1OC` [XL-11178A]: in the assay with Normal WI38 cells, the CC50 was above 40 µM. The IC50 in assay [1] was above 40 µM.

As for `COc1cc(/C=C/C(=O)N2CCC=CC2=O)cc(OC)c1OCCN(C)C` [XL-11194], the CC50 with Normal WI38 cells came out at 10.3 µM. In addition, in assay [1], the IC50 is 4.02 µM and the “Ratio (NSC/SC)” value amounted to 2.56.

With `O=C(C#Cc1ccccc1)N1CCC=CC1=O` [XZ 12040], the CC50 with Normal WI38 cells came out at 5.78 µM. In addition, in assay [1], the IC50 came to 2.4 µM and the “Ratio (NSC/SC)” value is 2.41.

Turning to `COc1cc(C#CC(=O)N2CCC=CC2=O)cc(OC)c1OC` [XZ-12045], the CC50 with Normal WI38 cells came out at 13.9 µM. Besides, in assay [1], the IC50 is 4.38 µM and the “Ratio (NSC/SC)” value is reported as 3.18.

For `O=C1C=CCCN1C(=O)/C=C/c1ccccc1C(F)(F)F` [XZ-12047], the CC50 in the assay with Normal WI38 cells worked out at 21.9 µM. Further, in assay [1], the IC50 is 10.8 µM and the “Ratio (NSC/SC)” value was found to be 2.03.

With `COc1cc(/C=C(\C#N)C(=O)N2CCC=CC2=O)cc(OC)c1OC` [XZ-12052], the CC50 with Normal WI38 cells worked out at 80 µM. Besides, in assay [1], the IC50 turned out to be 41 µM and the “Ratio (NSC/SC)” value is on record as 1.95.

With `C=C1CCCN(S(=O)(=O)/C=C/c2ccccc2)C1=O` [XZ-12107], the CC50 with Normal WI38 cells came out at 24 µM. In assay [1], the IC50 amounted to 4.77 µM and the “Ratio (NSC/SC)” value is recorded as 5.02.
